Source: paper PMC6611044, “Pharmacokinetic analysis of new synthetic antimalarial N-251” (Tropical Medicine and Health, 2019)
Values after ≈ are worked out from the molar mass of the structure shown. Values joined by “and” are separate entries in the source; they are usually repeats but may differ in a detail not shown here. Identical values can stand only once. “Also recorded” adds a separate entry of the source. Like-named read-outs stand apart in the source and are kept apart here.

Tests used:
[1] = cited from earlier work
[2] = PK analysis after i.v. administration of N-251 in fasted mice; type: in vivo; conditions: for MRTiv / Vd1 / Vd2 / AUC / k el / clearance / Vd: fasted mice; for A (hybrid parameter) / B (hybrid parameter) / a (hybrid parameter) / b (hybrid parameter): two-compartment fit; for half-life / AUC / k el / clearance / Vd: male, ICR, mouse, plasma; for clearance: read-out: CLtotal (converted); for Vd: read-out: Vdss
Method: We used healthy 5-week-old ICR male mice that were subjected to overnight fasting since the night a day before the test. To analyze N-251 after i.v. administration, doses of 25, 10, and 5 mg/kg were used for each group. The blood sample was collected at 2, 5, 15, and 30 min as well as 1, 2, 4, and 6 h post-dose, and a single blood sample was collected from a single mouse. Preparation of plasma samples of N-251 was described in the “Methods” section. Data were expressed as mean (n = 6) ± standard deviation (SD). Plasma concentration-time profiles after i.v. administration were fitted to a two-compartment model using the non-linear least-squares regression program MULTI [17]. Plasma concentration (Cp) was expressed using the following equation: Cp=A⋅EXP−α⋅t+B⋅EXP−β⋅t.
where A and B are D ⋅ (α − k21)/Vd1/(α − β) and D ⋅ (k21 − β)/Vd1/(α − β), respectively. D, Vd1, and k21 are the dose, apparent distribution volume of central compartment, and distribution rate constant from the peripheral to central compartment, respectively, and α and β represent the slopes of α and β phases of log Cp, respectively. PK parameters were calculated as follows: AUC = A/α +B/β; total body clearance, CLtotal =D/AUC; elimination rate constant, kel = (Aβ + Bα)/(A + B); apparent distribution volume of peripheral compartment, Vd2 =k12/k21·Vd1; distribution volume at steady state, Vdss = Vd1 + Vd2; and mean residence time (MRT) = (k12+ k21)/(kel·k21).

rodent malaria parasites = tested on: rodent malaria parasites; parameters: method as in PMID 21501696; conditions: 68 mg/kg three times a day for 3 days, cited from earlier work
[3] = Multiple p.o. dosing plasma concentration-time profile and simulation; type: in vivo, mice; conditions: 68 mg/kg three times a day for 3 days
[4] = Effects of food and parasite infection on absorption of N-251 after p.o. administration; type: in vivo, mice; conditions: p.o. 68 mg/kg; for F: vs AUC of 10 mg/kg i.v.
Method: Normal-fasted and normal-fed mice were used for the analysis. Parasite-infected mice were prepared before the analysis, and a 0.61% infection rate in P. berghei-infected mice under fasting condition was used. The single p.o. dose of N-251 was 68 mg/kg. Blood sample was collected 15, 30, and 45 min as well as 1, 1.5, 2, 3, 4, and 6 h post-dose. Data were expressed as mean with the bar indicating the SD value.

[5] = Multiple p.o. dosing plasma concentration-time profile and simulation; type: in vivo, mice
Method: N-251 was administered p.o. at a dose of 68 mg/kg every 8 h for 2 days in normal-fed mice. Blood sample was collected at 15, 30, and 45 min as well as 1, 1.5, 2, 3, 4, 6, 8, 10, 16, 18, 24, 26, 32, 34, 40, 42, 44, 46, and 48 h after administration. Data were expressed as mean (n = 6) with the bar indicating the SD value. Simulation of plasma concentration-time profile after multiple dosing was performed by utilizing the parameters obtained via fitting analysis for the plasma concentration-time curve after a single p.o. dose of N-251 based on the two-compartment model with the first-order absorption process. The equation and parameters used for the simulation were as follows: Cp=X⋅EXP−ka⋅t−tlag+Y⋅EXP−α⋅t−tlag+Z⋅EXP−β⋅t−tlag,
where ka and tlag are absorption rate constant and lag time, respectively, and X, Y, Z, α, and β are the hybrid parameters. Their values used for simulation were as follows: X = 8422 ng/mL/kg, ka = 0.845 h^−1, Y = − 8419 ng/mL/kg, α = 1.09 h^−[…], Z = 5.29 ng/mL/kg, β = 1.06 h^−1, and lag time = 0.330.

P. berghei = tested on: P. berghei; parameters: method as in PMID 11428929; conditions: 4-day suppressive test, cited from earlier work
[6] = i.v. 5, 10 and 25 mg/kg, range over doses
[7] = ICR, mouse, plasma, po, 68 mg/kg, normal-fed mice
[8] = fit of single p.o. dose, two-compartment model with first-order absorption

## OCCCCCCC1COOC2(CCCCCCCCCCC2)OOC1 [N-251, 6-(1,2,6,7-tetraoxaspiro [7.11]nonadec-4-yl)hexan-1-ol]
[1]; Cremophor EL
  solubility in Cremophor EL: 65 mg/mL (≈ 174 mM)
[1]; olive oil
  solubility in olive oil: 92 mg/mL (≈ 247 mM)
[2]; i.v. 5 mg/kg
  MRTiv: 1.12 h
  Vd1: 3.23 L/kg
  Vd2: 1.62 L/kg
  A (hybrid parameter): 1453.6 ± 465.9 ng/mL
  B (hybrid parameter): 92.5 ± 182.0 ng/mL
  a (hybrid parameter): 1.62 ± 0.70 h⁻¹
  b (hybrid parameter): 0.35 ± 0.37 h⁻¹
[2]; i.v. 10 mg/kg
  MRTiv: 0.96 h
  Vd1: 1.58 L/kg
  Vd2: 2.35 L/kg
  A (hybrid parameter): 5922.7 ± 1731.5 ng/mL
  B (hybrid parameter): 410.0 ± 253.8 ng/mL
  a (hybrid parameter): 3.84 ± 1.23 h⁻¹
  b (hybrid parameter): 0.46 ± 0.15 h⁻¹
[2]; i.v. 25 mg/kg
  MRTiv: 0.86 h
  Vd1: 1.36 L/kg
  Vd2: 1.52 L/kg
  A (hybrid parameter): 17,738.1 ± 1700.0 ng/mL
  B (hybrid parameter): 690.4 ± 341.6 ng/mL
  a (hybrid parameter): 3.12 ± 0.55 h⁻¹
  b (hybrid parameter): 0.39 ± 0.10 h⁻¹
[2]; [6]
  T1/2α: 0.18 to 0.429 h
  distribution volume: 2.88 to 4.85 L/kg
[2]; other: i.v. and p.o. administration, i.v. and p.o. administration, read-out: half-life
  half-life: < 2 h
[2]; iv, i.v. 5 mg/kg
  AUC: 1160 ng·h/mL
  k el: 0.000369 s⁻¹
  clearance: 71.7 mL/min/kg
  Vd: 4.85 L/kg
[2]; iv, i.v. 10 mg/kg
  AUC: 2430 ng·h/mL
  k el: 0.000722 s⁻¹
  clearance: 68.5 mL/min/kg
  Vd: 3.93 L/kg
[2]; iv, i.v. 25 mg/kg
  AUC: 7460 ng·h/mL
  k el: 0.000686 s⁻¹
  clearance: 55.8 mL/min/kg
  Vd: 2.88 L/kg
[2]; iv, i.v. 5, 10 and 25 mg/kg, range over doses, read-out: T1/2β
  half-life: 1.5 to 1.99 h
Rodent malaria parasites; infected mice
  period without parasites after the last administration: 2 months
  time after treatment at which parasites were not observed in the bloodstream: 36 h
  time after which malaria parasites decreased: 16 h
Rodent malaria parasites
  cure of infected mice: completely cured without recrudescence
[3]
  plasma concentration maintained for 72 h: more than 10 ng/mL
[4]; ICR, mouse, plasma, po, 68 mg/kg, P. berghei-infected (0.61%) fasted mice
  AUC: 3270 ng·h/mL
[4]; ICR, mouse, plasma, po, 68 mg/kg, P. berghei-infected (0.61%) fasted mice, read-out: Cmax
  Cmax: 1770 ± 1650 ng/mL
[4]; ICR, mouse, plasma, po, 68 mg/kg, normal-fasted mice (control), read-out: Cmax
  Cmax: 1680 ng/mL
[4]; [7]
  AUC: 2280 ng·h/mL
  Tmax: 1.5 h
[4]; ICR, mouse, plasma, po, 68 mg/kg, normal-fed mice, read-out: Cmax
  Cmax: 953 ng/mL
[4]
  AUC in fed mice relative to fasted mice: about 60%
  Cmax in fed mice relative to normal-fasted mice: 57%
[4]; P. berghei-infected (0.61%) fasted mice
  F: 0.1978
[4]; normal-fed mice
  MRTpo: 3.01 h
  F: 0.1379
[4]; normal-fed mice, 68 mg/kg
  Cmax: 950 ng/mL and 952.50 ± 332.49 ng/mL
[5]; 68 mg/kg p.o. every 8 h for 2 days, normal-fed mice, except 8 h after the first administration
  minimal plasma concentration (Cmin): greater than 10 ng/mL
[5]; 68 mg/kg p.o. three times per day for 2 days, normal-fed mice
  accumulation on multiple oral dosing: did not accumulate; also recorded: does not accumulate
[5]; [8]
  X (hybrid parameter used for simulation): 8422 ng/mL/kg
  Z (hybrid parameter used for simulation): 5.29 ng/mL/kg
  ka (absorption rate constant): 0.845 h⁻¹
  lag time: 0.330
  α (hybrid parameter used for simulation): 1.09 ng/h/mL/kg
  β (hybrid parameter used for simulation): 1.06 h⁻¹
P. berghei; i.v.
  ED50: 22 mg/kg
P. berghei; p.o.
  ED50: 15 mg/kg
